Literature values as cited in patent US11413271B2, “Oral eliglustat transmucosal delivery system” (ABON PHARMACEUTICALS LLC., priority 2018, dated 2022).

- Bioavailability in EMs (estimated) (CYP2D6 extensive metabolizers): about 4.17%
- Increase of systemic exposure (AUC0-12) at steady state compared to after the first dose (AUC0-∞) (multiple oral doses of 84 mg twice daily in EMs): up to 2 fold
SMILES: CCCCCCCC(=O)N[C@H](CN1CCCC1)[C@H](O)c1ccc2c(c1)OCCO2 [eliglustat]
